Measurements reported in publication PMC8175851, “Effects of Genetic Polymorphism in CYP2D6, CYP2C19, and the Organic Cation Transporter OCT1 on Amitriptyline Pharmacokinetics in Healthy Volunteers and Depressive Disorder Patients” (Frontiers in Pharmacology, 2021).
Where two headings read alike, the source gives them in different places.

How the values were obtained:
[1] = Plasma concentrations per dose unit of AT and NT in depressive disorder patients (75 mg AT twice daily); type: in vivo, human; conditions: 12-hour-trough levels
Description: Briefly, 75 mg AT was administered twice daily at 12 h dosing intervals. Any drugs or dietary ingredients that might interfere with CYP2D6 or CYP2C19 metabolism were avoided whenever possible. Blood samples (12-hour-trough levels) were taken on days 0, 7, 14, 18, and 21, centrifuged, and stored at 4°C for genotyping (CYP2D6 and CYP2C19) and concentration analyses. The blood samples were subsequently stored at −20°C and later genotyped for OCT1.
The serum concentrations in depressive disorder patients were determined either by the Emit® immunoassay specific for AT and NT or a commercial high-performance liquid chromatography assay (Bio-Rad Laboratories GmbH, Feldkirchen, Germany), as described before ([Steimer et al., 2004]; [Steimer et al., 2005]).
The correlation between AT and NT plasma AUC (study in healthy volunteers) or mean plasma concentration per dose unit (study in depressive disorder patients) and OCT1, CYP2D6, and CYP2C19 genotypes were calculated using the Jonckheere-Terpstra non-parametric analysis, which takes into consideration the a priori ordering (or trend) in gene activities from zero to normal to ultra-rapid (for CYP2C19 and CYP2D6). To do so, the genotypes were categorized into 0, 1, or 2 active alleles for OCT1, into 0, 0.5, 1, 1.5, 2, 2.5, or 3 active alleles for CYP2D6, and into 0, 1, 1.5, 2, 2.5, or 3 active alleles for CYP2C19, depending on their known effects on transporter/enzyme activity. OCT1 alleles *2, *3, *4, *5 were classified as being zero active. […] A semi-quantitative gene dosage was calculated for CYP2D6, as has been described earlier ([Steimer et al., 2004]). For calculating a CYP2C19 activity score, CYP2C19*2 was regarded as zero active, CYP2C19*1 was classified as 1, and CYP2C19*17 as 1.5. Additional multiple linear regression analyses included sex, age, body mass index, and glomerular filtration rate.

[2] = Pharmacokinetics of AT and NT in healthy volunteers after a single dose of 25 mg amitriptyline; type: in vivo, human; conditions: human, plasma, po, 25 mg, single oral 25 mg AT; for Cmax: read-out: Cmax
From the text: In order to enrich the study sample with the less frequent functionally deficient OCT1 variants, participants were selected based on OCT1 genotype from an internal database at the Institute of Clinical Pharmacology of the University Medical Center Göttingen. All volunteers who are listed in the internal database had agreed to it and the database was approved by the ethics committee of the University of Göttingen. […] Additional subjects with heterozygous genotypes were included to provide a better understanding of the effects of specific variants and the mode of inheritance. All volunteers gave their written informed consent before participation in the study. The study was approved by the ethics committee of the University of Göttingen and the German Federal Institute for Drugs and Medical Devices (BfArM). It was registered at the clinical trials databases Clinicaltrials.gov (NCT02054299) and EudraCT (number 2012-003546-33). […] Volunteers who underwent regular drug treatments other than oral contraceptives or who suffered from any relevant chronic illness, as well as pregnant or lactating women, were not included. All subjects were healthy according to a detailed medical history, medical examination, electrocardiogram, urine status and clinical chemistry, and haematology parameters (sodium, potassium, total bilirubin, aspartate aminotransferase, alanine-aminotransferase, creatinine, C-reactive protein, thyroid-stimulating hormone, haemoglobin, erythrocyte, thrombocyte, and leucocyte counts). […] After centrifugation (13,000 rpm, 15 min, room temperature), two-thirds of the supernatant were transferred to a new reaction tube and evaporated at 40°C under nitrogen flow. The residue was reconstituted under shaking in 0.1% methanoic acid and briefly centrifuged before quantification using a Nexera UHPLC system (Shimadzu, Kyoto, Japan) coupled to an API 4000 tandem mass spectrometer (AB Sciex, Darmstadt, Germany). […] PerkinElmer, Rodgau, Germany) with a Phenomenex C18 pre-column (4 × 2 mm, Phenomenex, Aschaffenburg, Germany). […] The lower limit of quantification was 0.5 ng/ml for AT and 0.1 ng/ml for NT. […] The mass spectrometry detection parameters are listed in Supplementary Table S1. For the study in healthy volunteers, the primary endpoints were the AUCs of plasma AT and NT concentrations. Secondary endpoints were the other pharmacokinetic parameters of AT and NT, as well as heart rate, blood pressure, pupil size effects, and possible adverse events (headache, fatigue, visual or hearing impairments, restlessness, nausea, dizziness, dry mouth, tremor, as well as sensations of hypothermia and heart palpitations determined using a visual analogue scale test). Pharmacokinetic parameters were calculated by non-compartmental analysis using Phoenix 64 WinNonlin version 6.3 (Certara Inc., Princeton, NJ, United States). AUCinf of AT was calculated from the time of dosing using the linear/log trapezoidal rule and extrapolated to infinity based on the last predicted concentration and using the terminal elimination rate constant (lambda z). AUC of NT was calculated from the time of dosing until the last measurement at 48 h using the linear/log trapezoidal rule, as a decline in NT concentrations was not observed in some subjects and extrapolation to infinity thus not possible.

[3] = both sexes, healthy volunteers, 0 active OCT1 alleles (n = 12)
[4] = both sexes, healthy volunteers, 1 active OCT1 allele (n = 9)
[5] = both sexes, healthy volunteers, 2 active OCT1 alleles (n = 14)
[6] = both sexes, healthy volunteers, CYP2C19 activity score 1 (n = 5), mean
[7] = both sexes, healthy volunteers, CYP2C19 activity score 1.5 (n = 2), mean
[8] = both sexes, healthy volunteers, CYP2C19 activity score 2 (n = 16), mean
[9] = both sexes, healthy volunteers, CYP2C19 activity score 2.5 (n = 10), mean
[10] = both sexes, healthy volunteers, CYP2D6 activity 0 (n = 3), mean
[11] = both sexes, healthy volunteers, CYP2D6 activity 0.5 (n = 2), mean
[12] = both sexes, healthy volunteers, CYP2D6 activity 1 (n = 10), mean
[13] = both sexes, healthy volunteers, CYP2D6 activity 1.5 (n = 6), mean
[14] = both sexes, healthy volunteers, CYP2D6 activity 2 (n = 11), mean
[15] = both sexes, healthy volunteers, CYP2D6 activity 2.5 (n = 1), mean
[16] = both sexes, healthy volunteers, CYP2D6 activity 3 (n = 2), mean
[17] = healthy volunteers, CYP2C19 activity score 0 (n = 1), mean
[18] = healthy volunteers, CYP2C19 activity score 3 (n = 1), mean

## CNCCC=C1c2ccccc2CCc2ccccc21 [Nortriptyline, nortriptyline]
[1]; OCT1 genotype *1 / *1 (n 27), mean ± standard deviation
  Mean plasma concentration per dose unit: 34.0 ± 18.3
[1]; OCT1 genotype *1 / *2 (n 14), mean ± standard deviation
  Mean plasma concentration per dose unit: 33.5 ± 14.6
[1]; OCT1 genotype *1 / *3 (n 2), mean ± standard deviation
  Mean plasma concentration per dose unit: 34.6 ± 12.4
[1]; OCT1 genotype *1 / *4 (n 1)
  Mean plasma concentration per dose unit: 39.6
[1]; OCT1 genotype *2 / *2 (n 3), mean ± standard deviation
  Mean plasma concentration per dose unit: 40.6 ± 26.7
[1]; OCT1 genotype *2 / *3 (n 2), mean ± standard deviation
  Mean plasma concentration per dose unit: 28.0 ± 13.2
[1]; OCT1 genotype *3 / *3 (n 1)
  Mean plasma concentration per dose unit: 29.9
[2]; both sexes, 35 healthy volunteers, read-out: AUC48h (range over all volunteers)
  AUC(0-t): 39.3 to 284 ng·h/mL
[2]; both sexes, healthy volunteers, 0 active OCT1 alleles (n = 12), read-out: AUC48h
  AUC(0-t): 90.2 ± 27.1 ng·h/mL
[2]; [3]
  Cmax: 2.7 ± 0.7 ng/mL
  Tmax: 6.2 ± 1.4 h
  half-life: 46.1 ± 24.4 h
[2]; both sexes, healthy volunteers, 1 active OCT1 allele (n = 9), read-out: AUC48h
  AUC(0-t): 88.3 ± 32.2 ng·h/mL
[2]; [4]
  Cmax: 2.6 ± 0.9 ng/mL
  Tmax: 6.7 ± 1.3 h
  half-life: 56.4 ± 31.3 h
[2]; both sexes, healthy volunteers, 2 active OCT1 alleles (n = 14), read-out: AUC48h
  AUC(0-t): 126 ± 63.5 ng·h/mL
[2]; [5]
  Cmax: 3.4 ± 1.4 ng/mL
  Tmax: 11.5 ± 8.7 h
  half-life: 40.1 ± 38.2 h
[2]; both sexes, healthy volunteers, CYP2C19 activity score 1 (n = 5), mean, read-out: AUC48h
  AUC(0-t): 69.4 ng·h/mL
[2]; [6]
  Cmax: 2.1 ng/mL
  Tmax: 6 h
  half-life: 48.2 h
[2]; both sexes, healthy volunteers, CYP2C19 activity score 1.5 (n = 2), mean, read-out: AUC48h
  AUC(0-t): 123 ng·h/mL
[2]; [7]
  Cmax: 3.5 ng/mL
  Tmax: 14.1 h
  half-life: 25.1 h
[2]; both sexes, healthy volunteers, CYP2C19 activity score 2 (n = 16), mean, read-out: AUC48h
  AUC(0-t): 103 ng·h/mL
[2]; [8]
  Cmax: 3 ng/mL
  Tmax: 6.6 h
  half-life: 47.7 h
[2]; both sexes, healthy volunteers, CYP2C19 activity score 2.5 (n = 10), mean, read-out: AUC48h
  AUC(0-t): 108 ng·h/mL
[2]; [9]
  Cmax: 3.1 ng/mL
  Tmax: 9.9 h
  half-life: 44.1 h
[2]; both sexes, healthy volunteers, CYP2D6 activity 0 (n = 3), mean, read-out: AUC48h
  AUC(0-t): 145 ng·h/mL
[2]; [10]
  Cmax: 3.48 ng/mL
  Tmax: 18.9 h
  half-life: 92 h
[2]; both sexes, healthy volunteers, CYP2D6 activity 0.5 (n = 2), mean, read-out: AUC48h
  AUC(0-t): 222 ng·h/mL
[2]; [11]
  Cmax: 5.54 ng/mL
  Tmax: 15.5 h
  half-life: 105 h
[2]; both sexes, healthy volunteers, CYP2D6 activity 1 (n = 10), mean, read-out: AUC48h
  AUC(0-t): 104 ng·h/mL
[2]; [12]
  Cmax: 2.94 ng/mL
  Tmax: 6.2 h
  half-life: 64.2 h
[2]; both sexes, healthy volunteers, CYP2D6 activity 1.5 (n = 6), mean, read-out: AUC48h
  AUC(0-t): 98.3 ng·h/mL
[2]; [13]
  Cmax: 2.79 ng/mL
  Tmax: 7 h
  half-life: 51.9 h
[2]; both sexes, healthy volunteers, CYP2D6 activity 2 (n = 11), mean, read-out: AUC48h
  AUC(0-t): 81.8 ng·h/mL
[2]; [14]
  Cmax: 2.57 ng/mL
  Tmax: 7.7 h
  half-life: 29.9 h
[2]; both sexes, healthy volunteers, CYP2D6 activity 2.5 (n = 1), mean, read-out: AUC48h
  AUC(0-t): 89.1 ng·h/mL
[2]; [15]
  Cmax: 3.11 ng/mL
  Tmax: 6 h
  half-life: 25 h
[2]; both sexes, healthy volunteers, CYP2D6 activity 3 (n = 2), mean, read-out: AUC48h
  AUC(0-t): 71.1 ng·h/mL
[2]; [16]
  Cmax: 2.49 ng/mL
  Tmax: 6 h
  half-life: 26.9 h
[2]; both sexes, healthy volunteers, OCT1 genotype *1 / *1 (n 14), mean ± standard deviation, read-out: AUC48h
  AUC(0-t): 126 ± 63 ng·h/mL
[2]; both sexes, healthy volunteers, OCT1 genotype *1 / *2 (n 3), mean ± standard deviation, read-out: AUC48h
  AUC(0-t): 115 ± 24 ng·h/mL
[2]; both sexes, healthy volunteers, OCT1 genotype *1 / *3 (n 4), mean ± standard deviation, read-out: AUC48h
  AUC(0-t): 78 ± 34 ng·h/mL
[2]; both sexes, healthy volunteers, OCT1 genotype *1 / *4 (n 2), mean ± standard deviation, read-out: AUC48h
  AUC(0-t): 69 ± 17 ng·h/mL
[2]; both sexes, healthy volunteers, OCT1 genotype *2 / *2 (n 3), mean ± standard deviation, read-out: AUC48h
  AUC(0-t): 109 ± 45 ng·h/mL
[2]; both sexes, healthy volunteers, OCT1 genotype *2 / *3 (n 4), mean ± standard deviation, read-out: AUC48h
  AUC(0-t): 90 ± 27 ng·h/mL
[2]; both sexes, healthy volunteers, OCT1 genotype *2 / *5 (n 1), read-out: AUC48h
  AUC(0-t): 83 ng·h/mL
[2]; both sexes, healthy volunteers, OCT1 genotype *3 / *3 (n 3), mean ± standard deviation, read-out: AUC48h
  AUC(0-t): 77 ± 11 ng·h/mL
[2]; both sexes, healthy volunteers, OCT1 genotype *3 / *4 (n 1), read-out: AUC48h
  AUC(0-t): 78 ng·h/mL
[2]; healthy volunteers, CYP2C19 activity score 0 (n = 1), mean, read-out: AUC48h
  AUC(0-t): 39.3 ng·h/mL
[2]; [17]
  Cmax: 1.05 ng/mL
  Tmax: 6 h
  half-life: 106 h
[2]; healthy volunteers, CYP2C19 activity score 3 (n = 1), mean, read-out: AUC48h
  AUC(0-t): 284 ng·h/mL
[2]; [18]
  Cmax: 6.5 ng/mL
  Tmax: 24.9 h
  half-life: 145 h
